According to patent US8030354B2, “Substituted biphenyl GPR40 modulators” (Amgen Inc., priority 2007, dated 2011):

Target: GPR40 (Homo sapiens, UniProt O14842)
Test: Cell-based aequorin assay (CHO cells stably expressing GPR40 and aequorin)
Parameters: expressed in transfected cells; host or cells: CHO cells stably transfected with GPR40 and aequorin
Conditions: activation of human GPR40, CHO cells, 0.01% HSA
Summary of the method: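 CHO cells stably co-expressing GPR40 and aequorin, loaded with coelenterazine (1 ug/mL, 2 h, room temperature) in H/HBSS with 20 mM Hepes and 0.01% fatty acid-free HSA. Serially diluted compounds added; luminescence recorded over 20 s. EC50 from dose-response of maximum relative light units.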

Chain of GPR40 (O14842 whole entry): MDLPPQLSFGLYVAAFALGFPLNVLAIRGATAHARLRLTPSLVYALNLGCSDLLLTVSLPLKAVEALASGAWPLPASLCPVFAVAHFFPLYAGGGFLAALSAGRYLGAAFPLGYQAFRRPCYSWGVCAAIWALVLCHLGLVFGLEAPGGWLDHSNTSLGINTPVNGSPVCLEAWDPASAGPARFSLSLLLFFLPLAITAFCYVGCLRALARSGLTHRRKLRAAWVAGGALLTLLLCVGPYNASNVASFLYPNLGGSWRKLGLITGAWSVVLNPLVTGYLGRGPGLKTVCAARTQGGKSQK

Compound | EC50
CC1(c2cccc(-c3ccc(COc4cccc(C(CC(=O)O)C5CC5)c4)cc3C3CCCC3(C)C)c2)OCCO1 (single isomer, unassigned) [Example 66.72, (S)-3-(3-((S)-3-((S)-2,2-Dimethylcyclopentyl)-4-(3-(2-methyl-1,3-dioxolan-2-yl)phenyl)benzyloxy)phenyl)-3-cyclopropylpropanoic acid or stereoisomer thereof] | 1000 to 10000 nM
COc1ccc(F)c(-c2ccc(COc3cccc(C(CC(=O)O)C4CC4)c3)cc2CN2CCCCCC2)c1 (single isomer, unassigned) [Example 66.73, (3S)-3-(3-(((2-(1-Azepanylmethyl)-2′-fluoro-5′-(methyloxy)-1,1′-biphenyl-4-yl)methyl)oxy)phenyl)-3-cyclopropylpropanoic acid or (3R)-3-(3-(((2-(1-azepanylmethyl)-2′-fluoro-5′-(methyloxy)-1,1′-biphenyl-4-yl)methyl)oxy)phenyl)-3-cyclopropylpropanoic acid] | 1000 to 10000 nM
CC(=O)c1cccc(-c2ccc(COc3cccc([C@@H](CC(=O)O)C4CC4)c3)cc2[C@H]2CCCC2(C)C)c1 (single isomer, unassigned) [Example 66.74, (S)-3-(3-((S)-3-((S)-2,2-Dimethylcyclopentyl)-4-(3-acetylphenyl)benzyloxy)phenyl)-3-cyclopropylpropanoic acid or stereoisomer thereof] | 1000 to 10000 nM
COc1ccc(F)c(-c2ccc(COc3cccc(C(CC(=O)O)C4CC4)c3)cc2CN2CCCC[C@@H]2C)c1 (single isomer, unassigned) [Example 66.75, (3S)-3-Cyclopropyl-3-(3-(((2′-fluoro-5′-(methyloxy)-2-(((2S)-2-methyl-1-piperidinyl)methyl)-1,1′-biphenyl-4-yl)methyl)oxy)phenyl)propanoic acid or (3R)-3-cyclopropyl-3-(3-(((2′-fluoro-5′-(methyloxy)-2-(((2S)-2-methyl-1-piperidinyl)methyl)-1,1′-biphenyl-4-yl)methyl)oxy)phenyl)propanoic acid] | 1000 to 10000 nM
CC(C)(O)c1cccc(-c2ccc(COc3cccc([C@@H](CC(=O)O)C4CC4)c3)cc2[C@H]2CCCC2(C)C)c1 (single isomer, unassigned) [Example 66.76, (S)-3-(3-((S)-3-((S)-2,2-dimethylcyclopentyl)-4-(3-(2-hydroxypropan-2-yl)phenyl)benzyloxy)phenyl)-3-cyclopropylpropanoic acid or stereoisomer thereof] | 1000 to 10000 nM
CCCCCOc1cc(COc2cccc(C(CCC)CC(=O)O)c2)ccc1-c1cc(OC)ccc1F (single isomer, unassigned) [Example 67.1, (3R)-3-(3-(((2′-Fluoro-5′-(methyloxy)-2-(pentyloxy)-1,1′-biphenyl-4-yl)methyl)oxy)phenyl)hexanoic acid or (3S)-3-(3-(((2∝-fluoro-5′-(methyloxy)-2-(pentyloxy)-1,1′-biphenyl-4-yl)methyl)oxy)phenyl)hexanoic acid] | 100 to 1000 nM
CCCC(CC(=O)O)c1cccc(OCc2ccc(-c3cc(OC)ccc3F)c(C(C)(C)C)c2F)c1 (single isomer, unassigned) [Example 67.3, (3R)-3-(3-(((2-(1,1-Dimethylethyl)-2′,3-difluoro-5′-(methyloxy)-1,1′-biphenyl-4-yl)methyl)oxy)phenyl)hexanoic acid or (3S)-3-(3-(((2-(1,1-dimethylethyl)-2′,3-difluoro-5′-(methyloxy)-1,1′-biphenyl-4-yl)methyl)oxy)phenyl)hexanoic acid] | 100 to 1000 nM
CCCC(CC(=O)O)c1cccc(OCc2ccc(-c3cc(OC)ccc3F)c(/C=C/C(C)(C)C)c2)c1 (single isomer, unassigned) [Example 67.4, (3R)-3-(3-(((2-((1E)-3,3-Dimethyl-1-butenyl)-2′-fluoro-5′-(methyloxy)-1,1′-biphenyl-4-yl)methyl)oxy)phenyl)hexanoic acid or (3S)-3-(3-(((2-((1E)-3,3-dimethyl-1-butenyl)-2′-fluoro-5′-(methyloxy)-1,1′-biphenyl-4-yl)methyl)oxy)phenyl)hexanoic acid] | 100 to 1000 nM
CCCC(CC(=O)O)c1cccc(OCc2ccc(-c3cc(OC)ccc3F)c(C3=CCC(C)(C)CC3)c2)c1 (single isomer, unassigned) [Example 67.5, (3R)-3-(3-(((2-(4,4-Dimethyl-1-cyclohexen-1-yl)-2′-fluoro-5′-(methyloxy)-1,1′-biphenyl-4-yl)methyl)oxy)phenyl)hexanoic acid or (3S)-3-(3-(((2-(4,4-dimethyl-1-cyclohexen-1-yl)-2′-fluoro-5′-(methyloxy)-1,1′-biphenyl-4-yl)methyl)oxy)phenyl)hexanoic acid] | 100 to 1000 nM
CCCC(CC(=O)O)c1cccc(OCc2ccc(-c3cc(OC)ccc3F)c(/C=C/C3CC3)c2)c1 (single isomer, unassigned) [Example 67.9, (3R)-3-(3-(((2-((E)-2-Cyclopropylethenyl)-2′-fluoro-5′-(methyloxy)-1,1′-biphenyl-4-yl)methyl)oxy)phenyl)hexanoic acid or (3S)-3-(3-(((2-((E)-2-cyclopropylethenyl)-2′-fluoro-5′-(methyloxy)-1,1′-biphenyl-4-yl)methyl)oxy)phenyl)hexanoic acid] | 1000 to 10000 nM
CCCC(CC(=O)O)c1cccc(OCc2ccc(-c3cc(OC)ccc3F)c(C3CCCC3)c2)c1 (single isomer, unassigned) [Example 67.10, (3R)-3-(3-(((2-Cyclopentyl-2′-fluoro-5′-(methyloxy)-1,1′-biphenyl-4-yl)methyl)oxy)p acid or (3S)-3-(3-(((2-cyclopentyl-2′-fluoro-5′-(methyloxy)-1,1′-biphenyl-4-yl)methyl)oxy)phenyl)hexanoic acid] | 100 to 1000 nM
CCCCOc1cc(COc2cccc(C(CCC)CC(=O)O)c2)ccc1-c1cccc(OC)c1 (single isomer, unassigned) [Example 67.13, (3R)-3-(3-(((2-(Butyloxy)-3′-(methyloxy)-1,1′-biphenyl-4-yl)methyl)oxy)phenyl)hexanoic acid or (3S)-3-(3-(((2-(butyloxy)-3′-(methyloxy)-1,1′-biphenyl-4-yl)methyl)oxy)phenyl)hexanoic acid] | 100 to 1000 nM
CCC[C@H](CC(=O)O)c1cccc(OCc2ccc(-c3cc(OC)ccc3F)c(OC3CCCCO3)c2)c1 (single isomer, unassigned) [Example 67.14, (3R)-3-(3-(((2′-Fluoro-5′-(methyloxy)-2-(tetrahydro-2H-pyran-2-yloxy)-1,1′-biphenyl-4-yl)methyl)oxy)phenyl)hexanoic acid or (3S)-3-(3-(((2′-fluoro-5′-(methyloxy)-2-(tetrahydro-2H-pyran-2-yloxy)-1,1′-biphenyl-4-yl)methyl)oxy)phenyl)hexanoic acid] | 100 to 1000 nM
CCCCCCOc1cc(COc2cccc([C@H](CCC)CC(=O)O)c2)ccc1-c1cc(OC)ccc1F (single isomer, unassigned) [Example 67.15, (3R)-3-(3-(((2′-Fluoro-2-(hexyloxy)-5′-(methyloxy)-1,1′-biphenyl-4-yl)methyl)oxy)phenyl)hexanoic acid or (3S)-3-(3-(((2′-fluoro-2-(hexyloxy)-5′-(methyloxy)-1,1′-biphenyl-4-yl)methyl)oxy)phenyl)hexanoic acid] | 100 to 1000 nM
CCCC(CC(=O)O)c1cccc(OCc2ccc(-c3cc(OC)ccc3F)c(OCCCC(C)C)c2)c1 (single isomer, unassigned) [Example 67.16, (3R)-3-(3-(((2′-Fluoro-5′-(methyloxy)-2-((4-methylpentyl)oxy)-1,1′-biphenyl-4-yl)methyl)oxy)phenyl)hexanoic acid or (3S)-3-(3-(((2′-fluoro-5′-(methyloxy)-2-((4-methylpentyl)oxy)-1,1′-biphenyl-4-yl)methyl)oxy)phenyl)hexanoic acid] | 100 to 1000 nM
CCCC(CC(=O)O)c1cccc(OCc2ccc(-c3cc(OC)ccc3F)c(OCC3CCCCC3)c2)c1 (single isomer, unassigned) [Example 67.17, (3R)-3-(3-(((2-((Cyclohexylmethyl)oxy)-2′-fluoro-5′-(methyloxy)-1,1′-biphenyl-4-yl)methyl)oxy)phenyl)hexanoic acid or (3S)-3-(3-(((2-((cyclohexylmethyl)oxy)-2′-fluoro-5′-(methyloxy)-1,1′-biphenyl-4-yl)methyl)oxy)phenyl)hexanoic acid] | 100 to 1000 nM
CCC[C@H](CC(=O)O)c1cccc(OCc2ccc(-c3ccccc3F)c(C(C)(C)C)c2)c1 (single isomer, unassigned) [Example 67.18, (3R)-3-(3-(((2-(1,1-Dimethylethyl)-2′-fluoro-1,1′-biphenyl-4-yl)methyl)oxy)phenyl)hexanoic acid or (3S)-3-(3-(((2-(1,1-dimethylethyl)-2′-fluoro-1,1′-biphenyl-4-yl)methyl)oxy)phenyl)hexanoic acid] | 1000 to 10000 nM
CCC[C@H](CC(=O)O)c1cccc(OCc2ccc(-c3ccc(OC)nc3)c(C(C)(C)C)c2)c1 (single isomer, unassigned) [Example 67.19, (3R)-3-(3-(((3-(1,1-Dimethylethyl)-4-(6-(methyloxy)-3-pyridinyl)phenyl)methyl)oxy)phenyl)hexanoic acid or (3S)-3-(3-(((3-(1,1-dimethylethyl)-4-(6-(methyloxy)-3-pyridinyl)phenyl)methyl)oxy)phenyl)hexanoic acid] | 1000 to 10000 nM
CCCC(CC(=O)O)c1cccc(OCc2ccc(-c3cccc(OC)n3)cc2)c1 (single isomer, unassigned) [Example 67.22, (3R)-3-(3-(((4-(6-(Methyloxy)-2-pyridinyl)phenyl)methyl)oxy)phenyl)hexanoic acid or (3S)-3-(3-(((4-(6-(methyloxy)-2-pyridinyl)phenyl)methyl)oxy)phenyl)hexanoic acid] | 1000 to 10000 nM
